How the values were obtained:
[1] = Skin irritation test (Draize method); assay type: in vivo, JW rabbits
Procedure: A skin irritation test was carried out using JW rabbits (17 to 18 weeks old). The backs of three rabbits were dehaired by an electric hair clipper, and four divisions of administration parts of 2.5×2.5 cm square were set on each rabbit back. 0.5 g of each specimen, i.e. oxidized coenzyme Q10 and reduced coenzyme Q10 (containing 2% of oxidized coenzyme Q10) was administered on the administration parts, and the parts were covered with gauzes for specimen's fixation. After the lapse of 4 hours, the specimens were removed. Further after the lapse of 1 hour, 24 hours, 48 hours, and 72 hours, formation of erythema, crusta and dropsy was determined by the method according to Draize J. H. et al. (Exp. Ther., 82, 377-390, 1944). That is, observations were made in view of formations of erythema, crusta and dropsy, they were scored for calculation of the primary irritation indexes, and the skin irritations were evaluated based on said primary irritation indexes. As a result, all scores were 0 (i.e. no erythema, crusta or dropsy) in observation items of oxidized coenzyme Q10 and reduced coenzyme Q10.

[2] = Percutaneous absorbability test: amount of antifungal agent in skin after ointment administration; settings: for Amount of antifungal agent in skin relative to antifungal agent alone (100), value in parentheses: same test, 2 hours after administration, *p<0.05, **p<0.01 Student t-test
Procedure: Using clotrimazole, bifonazole, and econazole as antifungal agents, the percutaneous absorption promoting effects of reduced coenzyme Q10 and oxidized coenzyme Q10 to these antifungal agents were evaluated. The antifungal agents were separately dissolved in ethanol, mixed with heat-melted polyethylene glycol 1000 (PEG 1000) so as to have the final concentration of 1%, and prepared into ointments by allowing them to stand at room temperature. Each of heat-melted reduced coenzyme Q10 and oxidized coenzyme Q10 was mixed with the above-mentioned heat-melted PEG 1000 ointment containing each antifungal agent to prepare mixed ointments in which each of the final concentrations of coenzyme Q10s and antifungal agent is 1%.
A percutaneous absorbability test was carried out using fully fed male hairless rats (weight: 350 to 400 g). The hairless rats were mildly anesthetized with ether, and three administration parts of 3 cm square were set on the backs of each rat. To each part, 0.1 g of each ointment, i.e. the ointment containing an antifungal agent alone, the ointment containing an antifungal agent and reduced coenzyme Q10, and the ointment containing an antifungal agent and oxidized coenzyme Q10 was administered. After the lapse of 2 hours from the administration, the rat was euthanized, the administration parts were thoroughly washed, and skin was collected. The clotrimazole amounts in skin were determined by the sequential treatment subjecting the skin to homogenization, acetone extraction, concentration using a solid phase column, and high performance liquid chromatography. Each amount of bifonazole and econazole in the skin was determined by the sequential treatment subjecting the skin to homogenization, methanol extraction, and high performance liquid chromatography.
The values are the average value ±standard deviation (n=3).

[3] = everyday administration, 1200 mg/kg/day for 52 weeks (Williams et al. 1999); cited from earlier work

## COC1=C(OC)C(=O)C(C/C=C(\C)CC/C=C(\C)CC/C=C(\C)CC/C=C(\C)CC/C=C(\C)CC/C=C(\C)CC/C=C(\C)CC/C=C(\C)CC/C=C(\C)CCC=C(C)C)=C(C)C1=O [oxidized coenzyme Q10]
[1]; rabbit, in vivo
  Scores for erythema, crusta and dropsy (Draize): 0
  Skin irritation (based on primary irritation index): no skin irritation was observed
[2]; rat, in vivo
  Increase of antifungal agent amount in skin: 20-40%

## COC1=C(OC)C(=O)C(C/C=C(\C)CC/C=C(\C)CC/C=C(\C)CC/C=C(\C)CC/C=C(\C)CC/C=C(\C)CC/C=C(\C)CC/C=C(\C)CC/C=C(\C)CCC=C(C)C)=C(C)C1=O [coenzyme Q10]
[3]
  Toxic influence in chronic toxicity test: completely no toxic influence had been observed

## Clc1ccc(COC(Cn2ccnc2)c2ccc(Cl)cc2Cl)cc1 (stereo not drawn) [Econazole, econazole]
[2]
  Amount of antifungal agent in skin relative to antifungal agent alone (100), value in parentheses: (100)

## Clc1ccccc1C(c1ccccc1)(c1ccccc1)n1ccnc1 [Clotrimazole, clotrimazole]
[2]
  Amount of antifungal agent in skin relative to antifungal agent alone (100), value in parentheses: (100)

## c1ccc(-c2ccc(C(c3ccccc3)n3ccnc3)cc2)cc1 (stereo not drawn) [Bifonazole, bifonazole]
[2]
  Amount of antifungal agent in skin relative to antifungal agent alone (100), value in parentheses: (100)

## COc1c(O)c(C)c(C/C=C(\C)CC/C=C(\C)CC/C=C(\C)CC/C=C(\C)CC/C=C(\C)CC/C=C(\C)CC/C=C(\C)CC/C=C(\C)CC/C=C(\C)CCC=C(C)C)c(O)c1OC [reduced coenzyme Q10]
[1]; 0.5 g on 2.5×2.5 cm dehaired back skin for 4 hours, observed 1, 24, 48 and 72 hours after removal, three rabbits
  Scores for erythema, crusta and dropsy (Draize): 0
[1]; 0.5 g on dehaired back skin for 4 hours, observed up to 72 hours after removal
  Skin irritation (based on primary irritation index): no skin irritation was observed

Source: patent US20050209343A1, “Percutaneous absorption promoters and compositions for treating athlete's foot” (priority 2002, published 2005)
